Measurements taken from patent US9540323B2 (BRISTOL-MYERS SQUIBB COMPANY, priority 2012, dated 2017).
Structures can show the parent of a compound that is named as a salt.

Experiments:
[1] = test system: human platelet rich plasma (PRP); assay: ADP induced platelet aggregation assay; details: Homo sapiens, Platelet, 5 min, read-out: PA IC50 (μM) @ 10 μM ADP, human PRP, 10 μM ADP, AUC at 5 minute
Description: The ability of P2Y1 antagonists covered in the present invention to inhibit platelet aggregation induced by 10 μM ADP was tested using human platelet rich plasma (PRP) as described in Platelet Protocols: Research and Clinical Laboratory Procedures (White, M. M. et al., Academic Press (1999)). Human blood was collected in 30 μM (final concentration in blood) argatroban (GSK) as the anticoagulant at a ratio of 1 mL per 9 mL of blood. The PRP was isolated by centrifugation at 170 g for 12 minutes. The platelet poor plasma (PPP) was used as the blank for optical aggregometry. Compounds of the present invention in DMSO solution was preincubated with 250 μL PRP at 37° C. for 1 minute with stirring speed of 1000 rpm. Aggregation was initiated by addition of 2.5 μL of 1 mM ADP (Chrono-log, Havertown, Pa.) for a final ADP concentration of 10 μM. Platelet aggregation was monitored using Optical Aggregometer (Chrono-log, Havertown, Pa.) and the area under the curve (AUC) at 5 minute was measured. IC50 was calculated using vehicle control as 0% inhibition.

[2] = target: cloned human P2Y1 receptors (Homo sapiens (Human), UniProt P47900); assay: Binding Assay B - Scintillation Proximity Assay (SPA) for P2Y1 binding, [33P] 2MeS-ADP; details: SPA, 0.3 nM [33P] 2MeS-ADP, Cheng-Prusoff; read-out: P2Y1 Ki (nM) using binding assay B
Description: Binding Assay B—Scintillation Proximity Assay (SPA) for P2Y1 Binding
A SPA membrane binding assay was used to identify inhibitors of [^33P] […] Reactions were allowed to proceed to completion at room temperature for 1 hour followed by centrifugation of the plate for 5 min. About 40 μL of the aqueous solution was aspirated. Plates were sealed and the [^33P]

cloned human P2Y1 receptors, sequence (P47900 whole entry): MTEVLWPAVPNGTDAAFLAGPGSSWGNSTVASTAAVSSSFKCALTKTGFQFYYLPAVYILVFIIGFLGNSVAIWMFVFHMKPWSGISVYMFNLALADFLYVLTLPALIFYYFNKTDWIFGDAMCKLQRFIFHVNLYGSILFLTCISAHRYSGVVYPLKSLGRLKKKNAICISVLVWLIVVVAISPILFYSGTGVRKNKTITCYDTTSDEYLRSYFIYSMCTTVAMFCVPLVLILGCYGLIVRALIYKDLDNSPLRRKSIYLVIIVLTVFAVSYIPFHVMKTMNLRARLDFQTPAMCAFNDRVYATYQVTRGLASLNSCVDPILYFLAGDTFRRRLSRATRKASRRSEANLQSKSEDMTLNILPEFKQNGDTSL

SMILES | IC50 [1] [µM] | Ki [2] [nM]
CC1(C)CN(c2ccccc2NC(=O)Nc2ccc(OC(F)(F)F)cc2)c2c(O)ccc(-c3cc(F)nc(F)c3)c21 [Example 111, 1-(2-(4-(2,6-Difluoropyridin-4-yl)-7-hydroxy-3,3-dimethylindolin-1-yl)phenyl)-3-(4-(trifluoromethoxy)phenyl)urea, TFA] | 0.14 | 7.5
CC1(C)CN(c2ccccc2NC(=O)Nc2ccc(OC(F)(F)F)cc2)c2c(O)cc(F)c(-c3cccc(CN4CCOCC4)c3)c21 [Example 251, 1-(2-(5-Fluoro-7-hydroxy-3,3-dimethyl-4-(3-(morpholinomethyl)phenyl)indolin-1-yl)phenyl)-3-(4-(trifluoromethoxy)phenyl)urea] | 0.93 | 16.9
CC(C)c1nc(-c2c(F)cc(O)c3c2C(C)(C)CN3c2ccccc2NC(=O)Nc2ccc(OC(F)(F)F)cc2)co1 [Example 258, 1-(2-(5-Fluoro-7-hydroxy-4-(2-isopropyloxazol-4-yl)-3,3-dimethylindolin-1-yl)phenyl)-3-(4-(trifluoromethoxy)phenyl)urea] | 0.52 | 7.5
CC1(C)CN(c2ccccc2NC(=O)Nc2ccc(OC(F)(F)F)cc2)c2c(O)ccc(-c3ccccc3)c21 [Example 195, 1-(2-(7-Hydroxy-3,3-dimethyl-4-phenylindolin-1-yl)phenyl)-3-(4-(trifluoromethoxy)phenyl)urea] | 0.18 | 9
CC1(C)CN(c2ccccc2NC(=O)Nc2ccc(OC(F)(F)F)cc2)c2c(O)ccc(-c3cnccn3)c21 [Example 132, 1-(2-(7-Hydroxy-3,3-dimethyl-4-(pyrazin-2-yl)indolin-1-yl)phenyl)-3-(4-(trifluoromethoxy)phenyl)urea] | 1.29 | 18.8
CC1(C)CN(c2ccccc2NC(=O)Nc2ccc(OC(F)(F)F)cc2)c2c(O)ccc(-c3ccc(F)cc3F)c21 [Example 203, 1-(2-(4-(2,4-Difluorophenyl)-7-hydroxy-3,3-dimethylindolin-1-yl)phenyl)-3-(4-(trifluoromethoxy)phenyl)urea] | 0.16 | 8
CC1(C)CN(c2ccccc2NC(=O)Nc2csc(Cl)n2)c2c(O)ccc(Cl)c21 [Example 58, 1-(2-(4-Chloro-7-hydroxy-3,3-dimethylindolin-1-yl)phenyl)-3-(2-chlorothiazol-4-yl)urea] | 0.32 | 4.1
Cc1noc(-c2ccc(O)c3c2C(C)(C)CN3c2ccccc2NC(=O)Nc2ccc(OC(F)(F)F)cc2)n1 [Example 97, 1-(2-(7-Hydroxy-3,3-dimethyl-4-(3-methyl-1,2,4-oxadiazol-5-yl)indolin-1-yl)phenyl)-3-(4-(trifluoromethoxy)phenyl)urea] | 1.52 | 20.7
CC1(C)CN(c2ccccc2NC(=O)Nc2ccc(OC(F)(F)F)cc2)c2c(O)c(F)cc(-c3ccc(C(F)(F)F)cn3)c21 [Example 129, 1-(2-(6-Fluoro-7-hydroxy-3,3-dimethyl-4-(5-(trifluoromethyl)pyridin-2-yl)indolin-1-yl)phenyl)-3-(4-(trifluoromethoxy)phenyl)urea] | 0.71 | 15.3
Cc1cccc2oc(-c3ccc(O)c4c3C(C)(C)CN4c3ccccc3NC(=O)Nc3ccc(OC(F)(F)F)cc3)nc12 [Example 90, 1-(2-(7-Hydroxy-3,3-dimethyl-4-(4-methylbenzo[d]oxazol-2-yl)indolin-1-yl)phenyl)-3-(4-(trifluoromethoxy)phenyl)urea] | 0.43 | 56.7
CCC1(CC)CN(c2ccccc2NC(=O)Nc2ccc(OC(F)(F)F)cc2)c2c(O)ccc(C#N)c21 [Example 43, 1-(2-(3,3-Diethyl-4-cyano-7-hydroxyindolin-1-yl)phenyl)-3-(4-(trifluoromethoxy)phenyl)urea] | 0.47 | 7.8
CC(C)(C)c1ccc(-c2c(F)cc(O)c3c2C(C)(C)CN3c2ccccc2NC(=O)Nc2ccc(OC(F)(F)F)cc2)cc1 [Example 241, 1-(2-(4-(4-(tert-Butyl)phenyl)-5-fluoro-7-hydroxy-3,3-dimethylindolin-1-yl)phenyl)-3-(4-(trifluoromethoxy)phenyl)urea] | 0.15 | 33.3
